According to ChEMBL document CHEMBL1133269, “4-Alkylidenyl glutamic acids, potent and selective GluR5 agonists” (Bioorg Med Chem Lett, 2000):
Active and inactive are the calls of the source. The rule behind the calls is not given here.

How the values were obtained:
[1] = biological target: T1, Glutamate receptor ionotropic, kainate 2 (Homo sapiens, UniProt Q13002); experiment: biochemical
Description: Binding affinity of compound was determined against Ionotropic glutamate receptor ionotropic kainate 2 using cell membranes prepared from HEK293 cells

Glutamate receptor 2 = Glutamate receptor 2 (Homo sapiens, UniProt P42262); experiment: Binding affinity of compound was determined against Ionotropic glutamate receptor AMPA 2 using cell membranes prepared from HEK293 cells
Glutamate receptor 1 = Glutamate receptor 1 (Homo sapiens, UniProt P42261); experiment: biochemical
Description: Binding affinity of compound was determined against Ionotropic glutamate receptor AMPA 1 using cell membranes prepared from HEK293 cells

[2] = biological target: Glutamate receptor ionotropic, kainate 1 (Homo sapiens, UniProt P39086); experiment: biochemical
Description: Binding affinity of compound was determined against Ionotropic glutamate receptor ionotropic kainate 1 using cell membranes prepared from HEK293 cells

[3] = Selectivity of compound was determined as the ratio of Ki of Glutamate receptor 6 to that of Glutamate receptor 5
Glutamate receptor 4 = Glutamate receptor 4 (Homo sapiens, UniProt P48058); experiment: biochemical
Description: Binding affinity of compound was determined against Ionotropic glutamate receptor AMPA 4 using cell membranes prepared from HEK293 cells

[4] = biological target: T2, Glutamate receptor ionotropic, kainate 5 (Homo sapiens, UniProt Q16478); experiment: Binding affinity of compound was determined against KA2 using cell membranes prepared from HEK293 cells
T2 sequence (Q16478 whole entry): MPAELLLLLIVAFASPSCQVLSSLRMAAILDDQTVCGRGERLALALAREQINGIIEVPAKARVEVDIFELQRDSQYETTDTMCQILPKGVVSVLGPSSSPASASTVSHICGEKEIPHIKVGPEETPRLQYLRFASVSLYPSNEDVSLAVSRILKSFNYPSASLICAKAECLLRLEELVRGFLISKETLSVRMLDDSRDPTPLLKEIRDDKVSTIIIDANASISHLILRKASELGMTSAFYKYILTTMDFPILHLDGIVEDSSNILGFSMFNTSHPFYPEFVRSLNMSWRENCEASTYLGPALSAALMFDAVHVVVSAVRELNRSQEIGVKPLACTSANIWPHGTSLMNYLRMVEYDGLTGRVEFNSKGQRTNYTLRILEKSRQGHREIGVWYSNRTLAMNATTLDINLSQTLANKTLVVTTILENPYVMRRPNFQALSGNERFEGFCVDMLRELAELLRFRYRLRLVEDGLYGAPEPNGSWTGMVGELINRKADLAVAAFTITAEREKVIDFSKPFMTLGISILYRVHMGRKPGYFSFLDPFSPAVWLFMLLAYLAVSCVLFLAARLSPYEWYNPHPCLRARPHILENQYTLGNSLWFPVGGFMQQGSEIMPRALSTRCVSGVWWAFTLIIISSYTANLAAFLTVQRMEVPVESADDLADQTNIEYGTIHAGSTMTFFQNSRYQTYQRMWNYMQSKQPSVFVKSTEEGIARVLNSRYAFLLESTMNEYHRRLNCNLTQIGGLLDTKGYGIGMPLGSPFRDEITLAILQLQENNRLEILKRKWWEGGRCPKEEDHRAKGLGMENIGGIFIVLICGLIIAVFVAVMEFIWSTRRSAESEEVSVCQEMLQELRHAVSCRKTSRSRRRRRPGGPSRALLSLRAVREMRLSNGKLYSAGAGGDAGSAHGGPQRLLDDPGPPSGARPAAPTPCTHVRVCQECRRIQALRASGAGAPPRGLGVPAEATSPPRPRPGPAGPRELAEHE

[5] = biological target: T2, Glutamate receptor ionotropic, kainate 5; experiment: Binding affinity of compound was determined against Glutamate receptor (KA2) using cell membranes prepared from HEK293 cells
[6] = biological target: T1, Glutamate receptor ionotropic, kainate 2; experiment: Agonistic activity of compound on Glutamate receptor 6 using cell membranes prepared from HEK293 cells was expressed as percentage Rmax; ne means no effect; assay type: functional, cell-based
[7] = biological target: T1, Glutamate receptor ionotropic, kainate 2; experiment: Compound was tested for agonistic activity at Glutamate receptor 6 using HEK293 cells; assay type: functional, cell-based

Glutamate receptor 4, sequence (P48058 whole entry): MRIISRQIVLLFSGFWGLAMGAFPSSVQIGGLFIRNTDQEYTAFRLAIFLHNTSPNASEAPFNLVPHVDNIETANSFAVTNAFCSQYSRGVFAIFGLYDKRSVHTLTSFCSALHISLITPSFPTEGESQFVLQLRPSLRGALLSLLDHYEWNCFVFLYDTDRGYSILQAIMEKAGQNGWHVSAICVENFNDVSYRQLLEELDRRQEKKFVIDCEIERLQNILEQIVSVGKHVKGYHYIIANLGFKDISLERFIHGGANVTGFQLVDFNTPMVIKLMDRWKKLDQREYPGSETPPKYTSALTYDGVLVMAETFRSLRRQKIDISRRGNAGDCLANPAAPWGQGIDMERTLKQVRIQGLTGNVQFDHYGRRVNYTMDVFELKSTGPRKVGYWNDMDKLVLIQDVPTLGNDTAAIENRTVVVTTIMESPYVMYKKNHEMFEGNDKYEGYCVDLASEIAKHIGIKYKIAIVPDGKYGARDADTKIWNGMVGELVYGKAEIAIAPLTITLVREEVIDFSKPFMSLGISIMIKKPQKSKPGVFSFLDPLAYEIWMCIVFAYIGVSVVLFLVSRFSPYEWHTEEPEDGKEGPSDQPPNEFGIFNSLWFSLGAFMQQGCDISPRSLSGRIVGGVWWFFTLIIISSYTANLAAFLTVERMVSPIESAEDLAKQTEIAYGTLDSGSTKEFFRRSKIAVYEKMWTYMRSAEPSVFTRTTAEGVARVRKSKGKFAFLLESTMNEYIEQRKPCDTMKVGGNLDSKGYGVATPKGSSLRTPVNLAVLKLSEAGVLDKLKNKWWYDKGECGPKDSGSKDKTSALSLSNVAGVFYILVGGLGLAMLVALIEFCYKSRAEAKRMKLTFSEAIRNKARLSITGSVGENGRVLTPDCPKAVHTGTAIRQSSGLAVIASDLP
T1 sequence (Q13002 whole entry): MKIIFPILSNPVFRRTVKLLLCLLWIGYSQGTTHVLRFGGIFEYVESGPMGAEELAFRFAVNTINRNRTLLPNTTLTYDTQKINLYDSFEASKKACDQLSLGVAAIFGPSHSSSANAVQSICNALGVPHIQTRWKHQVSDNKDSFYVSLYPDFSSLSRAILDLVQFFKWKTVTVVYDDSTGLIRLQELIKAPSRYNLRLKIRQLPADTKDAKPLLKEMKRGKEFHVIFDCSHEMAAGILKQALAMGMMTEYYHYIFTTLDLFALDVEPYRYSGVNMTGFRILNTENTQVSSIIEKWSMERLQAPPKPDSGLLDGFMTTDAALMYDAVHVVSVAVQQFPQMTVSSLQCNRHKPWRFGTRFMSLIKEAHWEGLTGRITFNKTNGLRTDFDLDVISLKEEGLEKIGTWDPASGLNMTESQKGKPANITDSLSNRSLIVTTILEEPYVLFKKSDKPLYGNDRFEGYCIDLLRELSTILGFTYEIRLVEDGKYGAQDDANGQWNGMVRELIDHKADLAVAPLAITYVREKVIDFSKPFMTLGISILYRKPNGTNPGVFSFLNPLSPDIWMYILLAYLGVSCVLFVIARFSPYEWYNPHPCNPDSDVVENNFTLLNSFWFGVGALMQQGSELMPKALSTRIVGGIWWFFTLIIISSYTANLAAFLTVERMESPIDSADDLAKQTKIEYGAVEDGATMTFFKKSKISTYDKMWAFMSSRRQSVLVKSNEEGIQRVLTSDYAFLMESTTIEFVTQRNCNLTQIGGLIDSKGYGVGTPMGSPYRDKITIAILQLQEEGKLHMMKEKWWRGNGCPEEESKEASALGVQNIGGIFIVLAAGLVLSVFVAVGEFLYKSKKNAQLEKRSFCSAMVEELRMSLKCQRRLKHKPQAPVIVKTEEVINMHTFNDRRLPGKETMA
Glutamate receptor ionotropic, kainate 1, sequence (P39086 whole entry): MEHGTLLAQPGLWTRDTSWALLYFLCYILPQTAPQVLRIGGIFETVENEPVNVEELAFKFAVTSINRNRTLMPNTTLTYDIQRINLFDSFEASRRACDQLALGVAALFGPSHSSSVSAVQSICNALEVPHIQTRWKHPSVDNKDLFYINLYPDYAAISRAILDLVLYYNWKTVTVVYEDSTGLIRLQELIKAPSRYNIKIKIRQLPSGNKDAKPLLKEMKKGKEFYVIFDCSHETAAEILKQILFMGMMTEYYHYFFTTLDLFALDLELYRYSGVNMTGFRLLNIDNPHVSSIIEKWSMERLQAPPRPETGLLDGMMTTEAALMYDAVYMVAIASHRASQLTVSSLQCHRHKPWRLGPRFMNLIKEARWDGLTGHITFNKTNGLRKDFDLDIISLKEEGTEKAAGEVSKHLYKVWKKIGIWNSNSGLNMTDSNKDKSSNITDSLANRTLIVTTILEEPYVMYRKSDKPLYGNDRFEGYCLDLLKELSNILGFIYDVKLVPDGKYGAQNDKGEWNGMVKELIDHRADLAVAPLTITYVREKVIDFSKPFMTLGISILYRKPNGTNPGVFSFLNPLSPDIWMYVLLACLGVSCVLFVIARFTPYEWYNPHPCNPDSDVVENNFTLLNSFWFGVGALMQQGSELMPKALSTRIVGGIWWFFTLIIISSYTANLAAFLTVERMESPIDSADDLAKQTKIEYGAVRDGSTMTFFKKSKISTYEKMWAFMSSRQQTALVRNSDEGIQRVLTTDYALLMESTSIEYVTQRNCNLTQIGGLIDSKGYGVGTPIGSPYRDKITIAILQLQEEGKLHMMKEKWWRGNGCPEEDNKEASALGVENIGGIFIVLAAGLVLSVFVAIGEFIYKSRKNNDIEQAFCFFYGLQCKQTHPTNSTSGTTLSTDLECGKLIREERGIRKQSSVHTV
Glutamate receptor 2, sequence (P42262 whole entry): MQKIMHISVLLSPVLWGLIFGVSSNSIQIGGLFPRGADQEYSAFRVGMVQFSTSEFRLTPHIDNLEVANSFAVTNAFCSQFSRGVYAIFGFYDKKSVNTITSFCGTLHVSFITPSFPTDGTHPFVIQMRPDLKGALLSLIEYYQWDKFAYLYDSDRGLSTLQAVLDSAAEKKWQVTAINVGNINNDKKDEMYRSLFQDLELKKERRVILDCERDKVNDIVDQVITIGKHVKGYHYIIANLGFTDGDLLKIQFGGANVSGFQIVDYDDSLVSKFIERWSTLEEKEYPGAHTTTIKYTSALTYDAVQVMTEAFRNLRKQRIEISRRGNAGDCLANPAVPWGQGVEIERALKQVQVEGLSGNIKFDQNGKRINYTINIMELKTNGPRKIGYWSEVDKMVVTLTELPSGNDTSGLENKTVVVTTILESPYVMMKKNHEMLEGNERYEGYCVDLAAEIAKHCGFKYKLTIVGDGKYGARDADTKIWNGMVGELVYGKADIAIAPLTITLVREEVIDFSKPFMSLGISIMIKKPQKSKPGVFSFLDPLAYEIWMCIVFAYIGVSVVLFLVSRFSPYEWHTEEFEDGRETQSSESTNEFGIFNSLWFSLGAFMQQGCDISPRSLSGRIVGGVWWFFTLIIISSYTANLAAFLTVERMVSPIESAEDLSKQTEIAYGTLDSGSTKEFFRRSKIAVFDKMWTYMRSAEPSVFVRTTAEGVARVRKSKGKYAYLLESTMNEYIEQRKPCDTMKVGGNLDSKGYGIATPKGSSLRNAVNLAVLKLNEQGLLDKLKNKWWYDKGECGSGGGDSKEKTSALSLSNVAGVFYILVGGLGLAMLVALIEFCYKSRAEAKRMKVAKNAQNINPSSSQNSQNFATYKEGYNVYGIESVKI
Glutamate receptor 1, sequence (P42261 whole entry): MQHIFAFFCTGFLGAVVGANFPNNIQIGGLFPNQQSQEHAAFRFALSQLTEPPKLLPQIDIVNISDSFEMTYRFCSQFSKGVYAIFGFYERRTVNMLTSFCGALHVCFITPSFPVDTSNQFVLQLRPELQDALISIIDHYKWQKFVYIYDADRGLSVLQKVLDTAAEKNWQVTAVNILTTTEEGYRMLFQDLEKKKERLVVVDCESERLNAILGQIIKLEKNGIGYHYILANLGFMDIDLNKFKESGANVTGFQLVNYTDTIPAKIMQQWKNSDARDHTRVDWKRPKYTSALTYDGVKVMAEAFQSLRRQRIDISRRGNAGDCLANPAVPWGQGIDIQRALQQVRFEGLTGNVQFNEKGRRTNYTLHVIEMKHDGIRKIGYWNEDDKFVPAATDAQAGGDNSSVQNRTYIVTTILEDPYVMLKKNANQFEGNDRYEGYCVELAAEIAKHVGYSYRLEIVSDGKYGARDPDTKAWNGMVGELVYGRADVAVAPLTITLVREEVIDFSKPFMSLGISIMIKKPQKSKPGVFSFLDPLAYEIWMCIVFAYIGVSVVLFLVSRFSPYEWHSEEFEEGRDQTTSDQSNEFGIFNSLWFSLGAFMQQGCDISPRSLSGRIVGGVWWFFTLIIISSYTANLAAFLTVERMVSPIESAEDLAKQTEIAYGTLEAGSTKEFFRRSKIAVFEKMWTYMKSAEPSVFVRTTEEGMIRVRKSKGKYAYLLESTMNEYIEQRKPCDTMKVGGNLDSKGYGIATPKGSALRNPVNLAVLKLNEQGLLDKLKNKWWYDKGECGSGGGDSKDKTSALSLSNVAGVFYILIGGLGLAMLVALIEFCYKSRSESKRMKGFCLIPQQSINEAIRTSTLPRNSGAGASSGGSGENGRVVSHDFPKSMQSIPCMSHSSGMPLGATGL

| SMILES | Ki [1] [µM] | Ki [2] [µM] | Ratio [3] | further results |
| --- | --- | --- | --- | --- |
| N[C@@H](C/C(=C\CCc1ccccc1)C(=O)O)C(=O)O | 205 | – | – | – |
| N[C@@H](C[C@@H](C/C=C/c1ccc2ccccc2c1)C(=O)O)C(=O)O | – | – | – | Ki (Glutamate receptor 2): > 10 µM; Ki (Glutamate receptor 1): > 10 µM |
| N[C@@H](C/C(=C\c1ccc(Cl)cc1)C(=O)O)C(=O)O | 193 | – | – | – |
| N[C@@H](CC(C(=O)O)=C1CCCCC1)C(=O)O | 255 | 5.13 | 49.7 | – |
| N[C@@H](C/C(=C\C1CCCCC1)C(=O)O)C(=O)O | > 100 | 6.06 | > 16.5 | – |
| C/C=C/C=C(/C[C@H](N)C(=O)O)C(=O)O | 16.3 | – | – | – |
| CC(C)/C=C(\C[C@H](N)C(=O)O)C(=O)O | 82.5 | – | – | Ki (Glutamate receptor 4): 5.6 µM; Ki (Glutamate receptor 2): 3.7 µM; Ki [4]: 7.5 µM; Ki (Glutamate receptor 1): 0.7 µM |
| C=C(C)[C@H]1CN[C@H](C(=O)O)[C@H]1CC(=O)O [KAINIC ACID] | – | – | – | Ki [5]: 0.08 µM |
| CCCC/C=C(/C[C@H](N)C(=O)O)C(=O)O | 125 | – | – | – |
| CC(C)/C=C(/C[C@H](N)C(=O)O)C(=O)O | > 500 | – | – | Ki (Glutamate receptor 4): 10.3 µM; Ki (Glutamate receptor 2): 44.9 µM; Ki [5]: 82.2 µM; Ki (Glutamate receptor 1): 113 µM |
| N[C@@H](C/C(=C\CCC(c1ccccc1)c1ccccc1)C(=O)O)C(=O)O | > 100 | > 1 | 100 | – |
| N[C@@H](CC(C(=O)O)=C1CCC1)C(=O)O | > 100 | – | – | – |
| CC1(C)CCC/C1=C(/C[C@H](N)C(=O)O)C(=O)O | > 100 | 0.236 | > 424 | – |
| C=C(C[C@H](N)C(=O)O)C(=O)O | 0.45 | – | – | – |
| N[C@@H](CC(C(=O)O)=C1CCCC1)C(=O)O | > 100 | – | – | Ki (Glutamate receptor 4): 0.533 µM; Ki (Glutamate receptor 2): 3.68 µM; Ki [5]: 10 µM; Rmax [6]: inactive; EC50 [7]: > 100 µM; Ki (Glutamate receptor 1): 1.1 µM |
| CCC(CC)=C(C[C@H](N)C(=O)O)C(=O)O | 207 | – | – | Ki (Glutamate receptor 4): 4.71 µM; Ki (Glutamate receptor 2): 281 µM; Ki [5]: 21.4 µM; Ki (Glutamate receptor 1): > 100 µM |
| CC(C)=C(C[C@H](N)C(=O)O)C(=O)O | > 400 | 13.9 | > 28.8 | – |
| N[C@@H](C/C(=C/CCC(c1ccccc1)c1ccccc1)C(=O)O)C(=O)O | > 10 | > 1 | 10 | – |
| CC1(C)CCC/C1=C(\C[C@H](N)C(=O)O)C(=O)O | 46.3 | 3.62 | 12.8 | – |
| CC(C)(C)/C=C(\C[C@H](N)C(=O)O)C(=O)O | > 100 | – | – | – |
| C/C=C(/C[C@H](N)C(=O)O)C(=O)O | 2.5 | 2.2 | 1.14 | – |
| CCC/C=C(/C[C@H](N)C(=O)O)C(=O)O | 57.2 | – | – | – |
| CC(C)C/C=C(\C[C@H](N)C(=O)O)C(=O)O | 634 | – | – | – |
| N[C@@H](C/C(=C\C=C\c1ccccc1)C(=O)O)C(=O)O | > 100 | – | – | – |
| CC/C=C(/C[C@H](N)C(=O)O)C(=O)O | 18 | – | – | EC50 [7]: > 300 µM |
| N[C@@H](C/C(=C\C1CCCC1)C(=O)O)C(=O)O | 87.6 | – | – | – |
